Where two headings read alike, the source gives them in different places.
Experiments:
[1] = Cytotoxicity on murine macrophages; type: cell-based; conditions: mouse, ± SD
Experimental: (§1) The cytotoxicity effect of the tested compounds was conducted using macrophages of the murine cell line J774.A1 (American Type Culture Collection #TIB-67) as previously described. The cells were maintained in the DMEM medium at 37 °C in a 5% CO2 humidified incubator. All the plates containing alamarBlue® were analyzed using the plate reader EnSpire Multimode Plate Reader® at excitation and emission wavelengths of 570 and 585 nm, respectively (PerkinElmer, ThermoFisher Scientific, Madrid, Spain). The IC50 (concentrations able to inhibit 50% of parasites), IC90 (concentrations able to inhibit 90% of parasites), and CC50 (concentration able to inhibit 50% of murine macrophages) values were determined for each compound by nonlinear regression using the GraphPad Prism 9 software.

[2] = test system: L. amazonensis promastigotes; assay: In vitro leishmanicidal activity on L. amazonensis promastigotes (Alamar Blue); type: cell-based, Leishmania amazonensis; conditions: 72 h, promastigotes, 72 h, ± SD
Experimental: (§2) The assay was conducted using the Alamar Blue® method as previously described. […] In 96-well microtiter plates (Corning^TM, Corning, NY, USA), serial dilutions of the citral derivative were first prepared, and later 10^6 parasites/mL were added into each well. Subsequently, 10% Alamar Blue® was added to the entire plate. The plates were incubated for 72 h at 26 °C. The cytotoxicity effect of the tested compounds was conducted using macrophages of the murine cell line J774.A1 (American Type Culture Collection #TIB-67) as previously described. The cells were maintained in the DMEM medium at 37 °C in a 5% CO2 humidified incubator. […] The IC50 (concentrations able to inhibit 50% of parasites), IC90 (concentrations able to inhibit 90% of parasites), and CC50 (concentration able to inhibit 50% of murine macrophages) values were determined for each compound by nonlinear regression using the GraphPad Prism 9 software.

[3] = as above; type: cell-based, Leishmania amazonensis; conditions: mouse; CC50 J774.A1 macrophages / IC50 L. amazonensis promastigotes; read-out: Selectivity SI (CC50/IC50), promastigotes
Experimental: as §2

[4] = test system: L. amazonensis promastigotes; assay: Mitochondrial membrane potential (JC-1 staining); type: cell-based, Leishmania amazonensis; conditions: IC90, 24 h, JC-1 red/green fluorescence ratio
Experimental: The effect of compound 9 to modulate cell features was studied in the L. amazonensis parasites using various specific commercial kits. Parasite cells were incubated with the compound at the previously calculated IC90 for 24 h. Subsequently, cells were washed and submitted to different treatments as mentioned by the manufacturer’s instructions. In all the assays, the plate reader EnSpire Multimode Plate Reader® (PerkinElmer, ThermoFisher Scientific, Madrid, Spain) and/or the image base system fluorescence microscope EVOS M5000 (version 1.5.1500.493) were used for fluorescence intensity quantification. […]
To evaluate the damage caused by the tested compound on mitochondrial function, mitochondrial membrane potential, the adenosine triphosphate (ATP) level, and reactive oxygen species (ROS) were measured as follows: The evaluation of the mitochondrial membrane potential was carried out using the JC-1 assay. JC-1 is a specific stain of the mitochondria which fluorescence emission depends on the mitochondrial membrane potential. In healthy mitochondria, JC-1 agglomerates and emits red fluorescence, while unhealthy ones remain as a monomer and emit green fluorescence. […]

L. amazonensis [5] = assay: Plasma membrane permeability (SYTOX Green); type: cell-based, Leishmania amazonensis; conditions: IC90, 24 h
Experimental: (§3) The effect of compound 9 to modulate cell features was studied in the L. amazonensis parasites using various specific commercial kits. Parasite cells were incubated with the compound at the previously calculated IC90 for 24 h. Subsequently, cells were washed and submitted to different treatments as mentioned by the manufacturer’s instructions. In all the assays, the plate reader EnSpire Multimode Plate Reader® (PerkinElmer, ThermoFisher Scientific, Madrid, Spain) and/or the image base system fluorescence microscope EVOS M5000 (version 1.5.1500.493) were used for fluorescence intensity quantification. For each protocol, images of representative population cells were obtained using the inverted confocal microscope Leica DMI 4000 B with the Leica Application Suite X 3.5.5.19976 software and Leica HC PL APO 63x/1.40 OIL CS2 Objective (Barcelona, Spain).
SYTOX^TM Green (Life Technologies, Madrid, Spain), a cell-impermeable DNA-binding stain, was used to evaluate membrane permeability and integrity. The assay was conducted as detailed in the manufacture instructions and as previously described.

[6] = test system: L. amazonensis intracellular amastigotes; assay: In vitro leishmanicidal activity on L. amazonensis intracellular amastigotes; type: cell-based, Leishmania amazonensis; conditions: Leishmania amazonensis; intracellular amastigotes; ± SD
[7] = as above; type: cell-based, Leishmania amazonensis; conditions: mouse; CC50 J774.A1 macrophages / IC50 L. amazonensis amastigotes; read-out: Selectivity SI (CC50/IC50), amastigotes
L. amazonensis [8] = assay: ATP level (CellTiter-Glo luminescence); type: cell-based, Leishmania amazonensis; conditions: IC90, 24 h
Experimental: as §3
The adenosine triphosphate (ATP) level was measured using the CellTiter-Glo Luminescent Cell Viability Assay (Promega, Madrid, Spain). The mitochondrion in which most cellular oxidations occur is considered the main source of cell ATP, and any damage and/or malfunction of this organelle generate the depletion of ATP levels.

T. cruzi epimastigotes = assay: In vitro trypanocidal activity on T. cruzi epimastigotes (alamarBlue); type: cell-based, Trypanosoma cruzi; conditions: 72 h; for IC50: Trypanosoma cruzi
Experimental: In a 96-well plate, a serial dilution of the tested compounds was performed in the liver infusion tryptose medium supplemented with 10% heat-inactivated fetal bovine serum. Later, 100 µL of 5 × 10^5 cells/mL of epimastigotes was added to each well. Afterwards, 20 µL of alamarBlue® was added to each well, and the plate was maintained at 26 °C for 72 h.
as §1

[9] = test system: L. amazonensis promastigotes; assay: Double stain assay (Hoechst 33342/PI) for programmed cell death; type: cell-based, Leishmania amazonensis; conditions: IC90, 24 h
Experimental: as §3
To identify the type of cell death occurring in treated Leishmania amazonensis, the Hoechst 33342 and propidium iodide (PI) dyes were employed. […] Post-treatment, three distinct staining patterns could be observed: blue fluorescence indicating cells […]; violet coloration resulting from the merge of blue and red fluorescence, representing late apoptotic cells; and red fluorescence corresponding to dead cells.

L. amazonensis [10] = assay: Intracellular ROS (CellROX Deep Red); type: cell-based, Leishmania amazonensis; conditions: IC90, 24 h
Experimental: as §3, with “Parasite” for “The effect of compound 9 to modulate cell features was studied in the L. amazonensis parasites using various specific commercial kits. Parasite”, “Spain). The measure of reactive oxygen species (ROS) was measured after treatment for 24 h using the CellROX® Deep Red fluorescent probe (Invitrogen, Madrid, Spain). The mitochondrion constitute an essential organelle to neutralize the reactive oxygen species; the malfunction of this organelle would generate an imbalance between the antioxidants and the reactive oxygen.” for “Spain).”

[11] = Leishmania amazonensis, read-out: L. amazonensis Promastigotes IC50
[12] = Leishmania amazonensis, Alamar Blue, read-out: L. amazonensis IC50

Row | Structure (SMILES) | CC50 ([1]; J774.A1 macrophage cell line) | IC50 [2, 11] | selectivity ratio [3] | IC50 [6] | selectivity ratio [7] | further results
1 | CC(C)=CCC/C(C)=C/C=NOC(=O)c1ccc([N+](=O)[O-])cc1 [Compound 6, citral oxime 4-nitrobenzoate] | > 300 µM | 34.2 ± 14.4 µM | 9.25 |  |  | 
2 | CCCCCCCCCCCCCCCCOP(=O)([O-])OCC[N+](C)(C)C [Miltefosine, reference compound] | 72.2 ± 8.85 µM |  | 11.2 | 3.12 ± 0.3 µM | 23.1 | Decrease of mitochondrial membrane potential in comparison with untreated cells [4]: 75%; Effect on plasma membrane permeability (in words) (L. amazonensis [5]): greater degree of damage to membrane permeability compared to compound 9; IC50 [2, 12]: 2.64 ± 0.09 µg/mL; IC50 ([2]; read-out: L. amazonensis Promastigotes IC50): 2.64 µM; Reduction in ATP production in comparison to the negative controls (L. amazonensis [8]): 74.11%
3 | CC(=O)ON=C/C=C(\C)CCC=C(C)C [Compound 3, citral oxime acetate] |  | > 100 µM |  |  |  | 
4 | CC(C)=CCCC(C)=CC=O [Compound 1, 3,7-dimethyl-2,6-octadienal] | > 300 µM |  | 6.97 |  |  | IC50 [2, 12]: 10.9 µg/mL; L. amazonensis IC50 ([2]; Alamar Blue, listed as Citral (1)): 8.47 ± 4.59 µg/mL; T. cruzi IC50 (T. cruzi epimastigotes; alamarBlue, ± SD, listed as Citral (1)): 12.90 ± 1.92 µg/mL; IC50 (T. cruzi epimastigotes): 12.9 µM; IC50 (T. cruzi epimastigotes; alamarBlue, ± SD): 24.8 µg/mL
5 | CC(C)=CCC/C(C)=C/C=NNC(N)=O [Compound 7, citral semicarbazone] | > 300 µM | 43.8 ± 12.1 µM | 9.29 |  |  | 
6 | CCCC(=O)ON=C/C=C(\C)CCC=C(C)C [Compound 4, citral oxime butyrate] |  | > 100 µM |  |  |  | 
7 | CC(C)=CCC/C(C)=C/C=NO [Compound 2, citral oxime] | > 300 µM | 40.8 ± 19.4 µM | 12.6 | 56.9 ± 19.1 µM | 9.39 | 
8 | O=C(Cn1ccnc1[N+](=O)[O-])NCc1ccccc1 [Benznidazole, reference compound] |  |  |  |  |  | IC50 (T. cruzi epimastigotes): 1.81 µM; IC50 (T. cruzi epimastigotes; alamarBlue, ± SD): 1.81 ± 0.5 µg/mL
9 | CC(C)=CCC/C(C)=C/C=NOC(=O)c1ccccc1 [Compound 5, citral oxime benzoate] | > 300 µM | 29.3 ± 8.07 µM | 10.4 |  |  | 
10 | CC(C)=CCCC(C)=CC=NNc1ccc([N+](=O)[O-])cc1[N+](=O)[O-] [Compound 9, citral 2,4-dinitrophenylhydrazone] |  | 10.6 ± 4.78 µM | 2.98 | 21.4 ± 0.65 µM | 1.47 | Type of cell death (in words) [9]: induction of mitochondrial-dependent apoptosis; Decrease of mitochondrial membrane potential in comparison with untreated cells [4]: 50%; CC50 ([1]; murine macrophages J774.A1): 31.6 ± 1.96 µM; Effect on plasma membrane permeability (in words) (L. amazonensis [5]): can affect the cell’s membrane permeability; Reduction in ATP production in comparison to the negative controls (L. amazonensis [8]): 46.35%; Intracellular ROS level (in words) (L. amazonensis [10]): significant increase in emitted fluorescence

Source: article PMC12193109, “Bioprospecting for Anti-Kinetoplastid Drug Discovery from Aloysia citrodora Essential Oil” (International Journal of Molecular Sciences, 2025)
